Patent US20110178118A1, “PALONOSETRON FOR THE TREATMENT OF CHEMOTHERAPY INDUCED EMESES” (priority 2002, published 2011)
Like-named read-outs stand apart in the source and are kept apart here. Marks after values point to notes of the source that are not given here.

Tests used:
[1] = test system: cisplatin-induced emesis; assay: Reversal of cisplatin-induced emesis, intravenous antiemetic one hour after cisplatin; assay type: in vivo, dogs; details: for Emetic Episodes (mean ± SD): observed five hours
Protocol: (§1) The antiemetic effects of intravenously and orally administered palonosetron were assessed in male and female dogs (sexes combined). Antineoplastic agents employed in these experiments included cisplatin (3 mg/kg)), dacarbazine (30 mg/kg), mechlorethamine (0.4 mg/kg) and actinomycin D (0.15 mg/kg). […] Mean numbers of episodes were computed and the statistical significance of differences between treatment groups were determined with Dunnett's t test. Solutions of palonosetron and comparator drugs (ondansetron and granisetron) were prepared in distilled water. Vehicle control groups received distilled water. In a different study, palonosetron and ondansetron were assessed for their relative abilities to reverse cisplatin-induced emesis. In these experiments dogs received intravenous injections of palonosetron, ondansetron, or vehicle one hour after the intravenous administration of 3.0 mg/kg cisplatin. Each animal was observed continuously for five hours following cisplatin administration for the number of emetic episodes.

[2] = test system: Dacarbazine-Induced Emesis; assay: Antagonism of dacarbazine-induced emesis; assay type: in vivo, dogs; details: 2 hours prior to dacarbazine 30.0 mg/kg IV, observed 5 hours
[3] = test system: cisplatin-induced emesis; assay: Intravenous palonosetron vs ondansetron in cisplatin-treated dogs; assay type: in vivo; details: 1.0 mg/kg intravenous; five-hour period following cisplatin 3.0 mg/kg
Protocol: The antiemetic effects of intravenously and orally administered palonosetron were assessed in male and female dogs (sexes combined). Antineoplastic agents employed in these experiments included cisplatin (3 mg/kg)), dacarbazine (30 mg/kg), mechlorethamine (0.4 mg/kg) and actinomycin D (0.15 mg/kg). […] Mean numbers of episodes were computed and the statistical significance of differences between treatment groups were determined with Dunnett's t test. Solutions of palonosetron and comparator drugs (ondansetron and granisetron) were prepared in distilled water. Vehicle control groups received distilled water. The therapeutic effects of intravenously and orally administered palonosetron were compared to those of ondansetron and vehicle in cisplatin-treated dogs.

[4] = test system: Mechlorethamine-Induced Emesis; assay type: in vivo, dogs; details: 2 hours prior to mechlorethamine 0.4 mg/kg IV, observed 5 hours
[5] = test system: cisplatin-induced emesis; assay: Duration of action in cisplatin-treated dogs; assay type: in vivo
Protocol: Mean numbers of episodes were computed and the statistical significance of differences between treatment groups were determined with Dunnett's t test. Solutions of palonosetron and comparator drugs (ondansetron and granisetron) were prepared in distilled water. Vehicle control groups received distilled water.

[6] = test system: Actinomycin D-Induced Emesis; assay: Antagonism of actinomycin D-induced emesis; assay type: in vivo, dogs; details: 2 hours prior to actinomycin D 0.15 mg/kg IV, observed 5 hours
[7] = test system: cisplatin-induced emesis; assay: Anti-emetic effect, oral antiemetic one hour before cisplatin; assay type: in vivo, dogs; details: for Emetic Episodes (mean ± SD): observed five hours
Protocol: as §1, with “The observation of potency differential was further seen during an experiment in which oral dose-response relationships of” for “In a different study,”, “compared in cisplatin-treated dogs. Palonosetron, ondansetron” for “assessed for their relative abilities to reverse cisplatin-induced emesis. In these experiments dogs received intravenous injections of palonosetron, ondansetron,”, “vehicle control were administered by the oral route” for “vehicle”, “prior to” for “after”, “the” for “the intravenous”, “of” for “of 3.0 mg/kg”

[8] = intravenous antiemetic 0.01 mg/kg
[9] = intravenous antiemetic 0.03 mg/kg
[10] = intravenous antiemetic 0.1 mg/kg
[11] = intravenous antiemetic 0.3 mg/kg

Cc1nccn1CC1CCc2c(c3ccccc3n2C)C1=O (centres unmarked) [Ondansetron, reference compound]
Emetic Episodes (mean ± SD) ([1]; intravenous dose 1.0 μg/kg one hour after cisplatin 3.0 mg/kg IV): 16.16 ± 5.14 ^ | Emetic Episodes (mean ± SD) ([1]; intravenous dose 3.0 μg/kg one hour after cisplatin 3.0 mg/kg IV): 13.33 ± 4.17 ^ | Emetic Episodes (mean ± SD) ([1]; intravenous dose 10.0 μg/kg one hour after cisplatin 3.0 mg/kg IV): 13.33 ± 3.01 ^ | Emetic Episodes (mean ± SD) ([1]; intravenous dose 30.0 μg/kg one hour after cisplatin 3.0 mg/kg IV): 8.33 ± 3.20^ | Emetic Episodes (mean ± SD) ([1]; intravenous dose 100.0 μg/kg one hour after cisplatin 3.0 mg/kg IV): 4.83 ± 2.40^b | Emetic Episodes (mean ± SD) ([1]; intravenous dose 300.0 μg/kg one hour after cisplatin 3.0 mg/kg IV): 1.00 ± 2.00^b | Emetic Episodes (mean ± SD) ([1]; intravenous dose 1000.0 μg/kg one hour after cisplatin 3.0 mg/kg IV): 1.16 ± 0.40^b | statistically minimally effective dose level ([1]; intravenous, one hour after cisplatin): 0.1 mg/kg | Emetic Episodes (mean ± SD) [2, 8]: 11.50 ± 5.51 ^ | Emetic Episodes (mean ± SD) [2, 9]: 8.17 ± 2.79^ | Emetic Episodes (mean ± SD) [2, 10]: 4.83 ± 2.48^d | Emetic Episodes (mean ± SD) [2, 11]: 1.33 ± 0.82^d | Emetic Episodes (mean ± SD) ([2]; oral antiemetic 0.03 mg/kg): 10.83 ± 2.72 ^ | Emetic Episodes (mean ± SD) ([2]; oral antiemetic 0.1 mg/kg): 6.17 ± 5.35^d | Emetic Episodes (mean ± SD) ([2]; oral antiemetic 0.3 mg/kg): 3.00 ± 3.03^d | Emetic Episodes (mean ± SD) ([2]; oral antiemetic 1 mg/kg): 0.17 ± 0.41^d | mean number of emetic episodes [3]: 6.83 | Emetic Episodes (mean ± SD) [4, 8]: 5.83 ± 4.31 | Emetic Episodes (mean ± SD) [4, 9]: 3.50 ± 2.07^c | Emetic Episodes (mean ± SD) [4, 10]: 5.33 ± 4.68 | Emetic Episodes (mean ± SD) [4, 11]: 4.67 ± 1.63^c | Emetic Episodes (mean ± SD) ([4]; oral antiemetic 0.03 mg/kg): 5.67 ± 2.50 | Emetic Episodes (mean ± SD) ([4]; oral antiemetic 0.1 mg/kg): 8.50 ± 3.15 | Emetic Episodes (mean ± SD) ([4]; oral antiemetic 0.3 mg/kg): 2.83 ± 3.71^d | Emetic Episodes (mean ± SD) ([4]; oral antiemetic 1 mg/kg): 0.00 ± 0.00^d | pretreatment time before cisplatin with reduced emetic episodes ([5]; 0.15 mg/kg IV): only after a one-hour pretreatment period | Emetic Episodes (mean ± SD) ([5]; 0.15 mg/kg IV, 1 hr pre-cisplatin 3.0 mg/kg IV): 7.83 ± 4.12^b | Emetic Episodes (mean ± SD) ([5]; 0.15 mg/kg IV, 2 hr pre-cisplatin 3.0 mg/kg IV): 10.67 ± 5.28 | Emetic Episodes (mean ± SD) ([5]; 0.15 mg/kg IV, 4 hr pre-cisplatin 3.0 mg/kg IV): 12.67 ± 2.07 | Emetic Episodes (mean ± SD) ([5]; 0.15 mg/kg IV, 6 hr pre-cisplatin 3.0 mg/kg IV): 14.17 ± 6.79 | Emetic Episodes (mean ± SD) ([5]; 0.15 mg/kg IV, 8 hr pre-cisplatin 3.0 mg/kg IV): 15.50 ± 7.29 | Emetic Episodes (mean ± SD) ([5]; 0.15 mg/kg IV, 10 hr pre-cisplatin 3.0 mg/kg IV): 13.83 ± 4.58 | Emetic Episodes (mean ± SD) ([5]; 0.15 mg/kg IV, 12 hr pre-cisplatin 3.0 mg/kg IV): 22.00 ± 8.32 | protective effects, pretreatment time prior to cisplatin ([5]; earlier experiment, 0.3 mg/kg, IV): as long as seven hours | Emetic Episodes (mean ± SD) [6, 8]: 7.67 ± 2.25^d | Emetic Episodes (mean ± SD) [6, 9]: 14.67 ± 4.68 ^ | Emetic Episodes (mean ± SD) [6, 10]: 12.67 ± 3.45 ^ | Emetic Episodes (mean ± SD) [6, 11]: 5.83 ± 4.45^d | Emetic Episodes (mean ± SD) ([6]; oral antiemetic 0.03 mg/kg): 9.83 ± 7.52^ | Emetic Episodes (mean ± SD) ([6]; oral antiemetic 0.1 mg/kg): 10.33 ± 4.84 ^ | Emetic Episodes (mean ± SD) ([6]; oral antiemetic 0.3 mg/kg, one dog dropped): 4.20 ± 1.92^d | Emetic Episodes (mean ± SD) ([6]; oral antiemetic 1 mg/kg): 1.50 ± 1.38^d | Emetic Episodes (mean ± SD) ([7]; oral dose 1.0 μg/kg one hour before cisplatin): 15.50 ± 3.93 | Emetic Episodes (mean ± SD) ([7]; oral dose 3.0 μg/kg one hour before cisplatin): 14.83 ± 6.49 | Emetic Episodes (mean ± SD) ([7]; oral dose 10.0 μg/kg one hour before cisplatin): 12.66 ± 3.01 | Emetic Episodes (mean ± SD) ([7]; oral dose 30.0 μg/kg one hour before cisplatin): 18.33 ± 8.43 | Emetic Episodes (mean ± SD) ([7]; oral dose 100.0 μg/kg one hour before cisplatin): 10.50 ± 3.14 | Emetic Episodes (mean ± SD) ([7]; oral dose 300.0 μg/kg one hour before cisplatin): 3.16 ± 1.32^a | Emetic Episodes (mean ± SD) ([7]; oral dose 1000.0 μg/kg one hour before cisplatin): 2.00 ± 2.09^a | minimally effective dose (significant reduction in episodes) ([7]; oral, one hour before cisplatin): 0.3 mg/kg
